Results: US20230322761A1, “DEGRADATION OF BRUTON'S TYROSINE KINASE (BTK) BY CONJUGATION OF BTK INHIBITORS WITH E3 LIGASE LIGAND AND METHODS OF USE” (BEIGENE, LTD., priority 2020, published 2023)

Molecular target: T1, BTK (Homo sapiens, UniProt Q06187)
T1 construct: endogenous in cells; host or cells: TMD-8 cells
Assay: BTK degradation in TMD-8 cells, HTRF assay after 6 h treatment
Format: cell-based
Conditions: IC50 (DC50) of BTK degradation
How it was run: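 TMD-8 cells treated for 6 h with 8 compound doses in 6-fold dilution steps from a 1 mM 500× DMSO stock (0.2% DMSO), then lysed 30 min at room temperature. BTK in lysate detected by HTRF (665/620 nm) after overnight antibody incubation; DC50 from four-parameter curve fit.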

T1 sequence (Q06187 whole entry): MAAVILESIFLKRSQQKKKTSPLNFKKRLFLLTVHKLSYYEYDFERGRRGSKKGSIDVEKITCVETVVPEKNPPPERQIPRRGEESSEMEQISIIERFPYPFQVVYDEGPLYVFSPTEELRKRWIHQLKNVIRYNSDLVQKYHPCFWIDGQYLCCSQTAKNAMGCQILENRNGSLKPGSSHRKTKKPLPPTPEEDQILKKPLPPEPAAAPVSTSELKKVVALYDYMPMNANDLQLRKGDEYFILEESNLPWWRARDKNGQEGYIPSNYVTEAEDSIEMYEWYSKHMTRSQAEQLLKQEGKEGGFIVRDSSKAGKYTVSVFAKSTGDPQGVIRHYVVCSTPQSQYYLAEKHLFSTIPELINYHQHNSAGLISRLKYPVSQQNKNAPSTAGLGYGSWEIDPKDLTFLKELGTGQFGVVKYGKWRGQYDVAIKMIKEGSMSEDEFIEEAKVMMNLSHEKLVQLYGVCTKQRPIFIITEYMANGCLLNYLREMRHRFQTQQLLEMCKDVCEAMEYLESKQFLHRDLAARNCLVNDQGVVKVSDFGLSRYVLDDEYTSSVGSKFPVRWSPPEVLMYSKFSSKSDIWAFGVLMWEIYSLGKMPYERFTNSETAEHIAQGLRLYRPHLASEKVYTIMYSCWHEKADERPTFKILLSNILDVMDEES

Structure (SMILES) | DC50
Cc1nc(CCN2CCN(c3ccc(-c4cnc5[nH]nc(-c6ccc([C@@H](C)NC(=O)c7noc(C(C)(C)C)n7)c(CO)c6)c5c4)cc3)CC2)ccc1C1CCC(=O)NC1=O (stereo partly drawn) [Example 167, 5-(tert-butyl)-N-((1R)-1-(4-(5-(4-(4-(2-(5-(2,6-dioxopiperidin-3-yl)-6-methylpyridin-2-yl)ethyl)piperazin-1-yl)phenyl)-1H-pyrazolo[3,4-b]pyridin-3-yl)-2-(hydroxymethyl)phenyl)ethyl)-1,2,4-oxadiazole-3-carboxamide] | 4.13 nM
Cc1c(CNC(=O)c2noc(C(C)(C)C)n2)ccc(-c2n[nH]c3ncc(-c4ccc(N5CCN(CC6CCN(c7ccc(N8CCC(=O)NC8=O)cc7)CC6)CC5)cc4)cc23)c1F [Example 99, 5-(tert-butyl)-N-(4-(5-(4-(4-((1-(4-(2,4-dioxotetrahydropyrimidin-1(2H)-yl)phenyl)piperidin-4-yl)methyl)piperazin-1-yl)phenyl)-1H-pyrazolo[3,4-b]pyridin-3-yl)-3-fluoro-2-methylbenzyl)-1,2,4-oxadiazole-3-carboxamide] | 17.8 nM
CC(C)(C)c1noc(C(=O)NCc2ccc(-c3n[nH]c4ncc(-c5ccc(C6CCN(CC7CCN(c8ccc(N9CCC(=O)NC9=O)cc8)CC7)CC6)cc5)cc34)cc2F)n1 [Example 10, 3-(tert-butyl)-N-(4-(5-(4-(1-((1-(4-(2,4-dioxotetrahydropyrimidin-1(2H)-yl)phenyl)piperidin-4-yl)methyl)piperidin-4-yl)phenyl)-1H-pyrazolo[3,4-b]pyridin-3-yl)-2-fluorobenzyl)-1,2,4-oxadiazole-5-carboxamide] | 10.8 nM
Cc1cc(-c2n[nH]c3ncc(-c4ccc(N5CCN(C6CC(c7ccc([C@H]8CCC(=O)NC8=O)cc7)C6)CC5)cc4)cc23)ccc1[C@@H](C)NC(=O)c1noc(C(C)(C)C)n1 (stereo partly drawn) [Example 223, 5-(tert-butyl)-N—((R)-1-(4-(5-(4-(4-((1S,3r)-3-(4-((S)-2,6-dioxopiperidin-3-yl)phenyl)cyclobutyl)piperazin-1-yl)phenyl)-1H-pyrazolo[3,4-b]pyridin-3-yl)-2-methylphenyl)ethyl)-1,2,4-oxadiazole-3-carboxamide] | 1.56 nM
Cc1cc(-c2n[nH]c3ncc(-c4ccc(N5CCN(CCc6ccc(C7CCC(=O)NC7=O)c(C)n6)CC5)cn4)cc23)ccc1[C@@H](C)NC(=O)c1noc(C(C)(C)C)n1 (stereo partly drawn) [Example 163, 5-(tert-butyl)-N-((1R)-1-(4-(5-(5-(4-(2-(5-(2,6-dioxopiperidin-3-yl)-6-methylpyridin-2-yl)ethyl)piperazin-1-yl)pyridin-2-yl)-1H-pyrazolo[3,4-b]pyridin-3-yl)-2-methylphenyl)ethyl)-1,2,4-oxadiazole-3-carboxamide] | 2.13 nM
Cc1cc(CCN2CCN(c3ccc(-c4cnc5[nH]nc(-c6ccc([C@@H](C)NC(=O)c7nc(C(C)(C)C)no7)c(C)c6)c5c4)cc3)CC2)ccc1C1CCC(=O)NC1=O (stereo partly drawn) [Example 87, 3-(tert-butyl)-N-((1R)-1-(4-(5-(4-(4-(4-(2,6-dioxopiperidin-3-yl)-3-methylphenethyl)piperazin-1-yl)phenyl)-1H-pyrazolo[3,4-b]pyridin-3-yl)-2-methylphenyl)ethyl)-1,2,4-oxadiazole-5-carboxamide] | 7.21 nM
Cc1cc(-c2n[nH]c3ncc(-c4ccc(N5CCN(CCc6ccc([C@@H]7CCC(=O)NC7=O)cc6)CC5)cc4)cc23)ccc1[C@@H](C)NC(=O)c1noc(C(C)(C)C)n1 [Example 112, 5-(tert-butyl)-N—((R)-1-(4-(5-(4-(4-(4-((S)-2,6-dioxopiperidin-3-yl)phenethyl)piperazin-1-yl)phenyl)-1H-pyrazolo[3,4-b]pyridin-3-yl)-2-methylphenyl)ethyl)-1,2,4-oxadiazole-3-carboxamide] | 1.79 nM
Cc1cc(-c2n[nH]c3ncc(-c4ccc(N5CCN(CC6CCN(c7ccc(N8CCC(=O)NC8=O)cc7)CC6)CC5)cc4)cc23)ccc1CNC(=O)c1nc(C(C)(C)C)no1 [Example 20, 3-(tert-butyl)-N-(4-(5-(4-(4-((1-(4-(2,4-dioxotetrahydropyrimidin-1(2H)-yl)phenyl)piperidin-4-yl)methyl)piperazin-1-yl)phenyl)-1H-pyrazolo[3,4-b]pyridin-3-yl)-2-methylbenzyl)-1,2,4-oxadiazole-5-carboxamide] | 3.95 nM
Cc1cc(CCN2CCN(c3ccc(-c4cnc5[nH]nc(-c6ccc([C@@H](C)NC(=O)c7nc(C(C)(C)C)no7)c(C)c6)c5c4)cc3)CC2)ncc1C1CCC(=O)NC1=O (stereo partly drawn) [Example 154, 3-(tert-butyl)-N-((1R)-1-(4-(5-(4-(4-(2-(5-(2,6-dioxopiperidin-3-yl)-4-methylpyridin-2-yl)ethyl)piperazin-1-yl)phenyl)-1H-pyrazolo[3,4-b]pyridin-3-yl)-2-methylphenyl)ethyl)-1,2,4-oxadiazole-5-carboxamide] | 3.27 nM
Cc1cc(-c2n[nH]c3ncc(-c4ccc(C5CCN(CCCOc6ccc(NC7CCC(=O)NC7=O)c(C)c6)CC5)cc4)cc23)ccc1CNC(=O)c1nc(C(C)(C)C)no1 (stereo not drawn) [Example 24, 3-(tert-butyl)-N-(4-(5-(4-(1-(3-(4-((2,6-dioxopiperidin-3-yl)amino)-3-methylphenoxy)propyl)piperidin-4-yl)phenyl)-1H-pyrazolo[3,4-b]pyridin-3-yl)-2-methylbenzyl)-1,2,4-oxadiazole-5-carboxamide] | 4.62 nM
COc1cc(N2CCC(CN3CCN(c4ccc(-c5cnc6[nH]nc(-c7ccc(CNC(=O)c8noc(C(C)(C)C)n8)c(C)c7)c6c5)cc4)CC3)CC2)ccc1N1CCC(=O)NC1=O [Example 50, 5-(tert-butyl)-N-(4-(5-(4-(4-((1-(4-(2,4-dioxotetrahydropyrimidin-1(2H)-yl)-3-methoxyphenyl)piperidin-4-yl)methyl)piperazin-1-yl)phenyl)-1H-pyrazolo[3,4-b]pyridin-3-yl)-2-methylbenzyl)-1,2,4-oxadiazole-3-carboxamide] | 4.65 nM
Cc1cc(-c2n[nH]c3ncc(-c4ccc(N5CCC(COc6ccc(C7CCC(=O)NC7=O)cc6)CC5)cc4)cc23)ccc1[C@@H](C)NC(=O)c1noc(C(C)(C)C)n1 (stereo partly drawn) [Example 183, 5-(tert-butyl)-N-((1R)-1-(4-(5-(4-(4-((4-(2,6-dioxopiperidin-3-yl)phenoxy)methyl)piperidin-1-yl)phenyl)-1H-pyrazolo[3,4-b]pyridin-3-yl)-2-methylphenyl)ethyl)-1,2,4-oxadiazole-3-carboxamide] | 19.8 nM
Cc1cc(-c2n[nH]c3ncc(-c4ccc(N5CCN(CC6CCN(c7ccc(N8CCC(=O)NC8=O)cc7)CC6)CC5)cc4)cc23)ccc1CNC(=O)c1noc(C2(C(F)(F)F)CC2)n1 [Example 42, N-(4-(5-(4-(4-((1-(4-(2,4-dioxotetrahydropyrimidin-1(2H)-yl)phenyl)piperidin-4-yl)methyl)piperazin-1-yl)phenyl)-1H-pyrazolo[3,4-b]pyridin-3-yl)-2-methylbenzyl)-5-(1-(trifluoromethyl)cyclopropyl)-1,2,4-oxadiazole-3-carboxamide] | 22.8 nM
Cc1nc(CCN2CCN(c3ccc(-c4cnc5[nH]nc(-c6ccc([C@@H](C)NC(=O)c7nc(C(C)(C)C)no7)c(CO)c6)c5c4)cc3)CC2)ccc1C1CCC(=O)NC1=O (stereo partly drawn) [Example 177, 3-(tert-butyl)-N-((1R)-1-(4-(5-(4-(4-(2-(5-(2,6-dioxopiperidin-3-yl)-6-methylpyridin-2-yl)ethyl)piperazin-1-yl)phenyl)-1H-pyrazolo[3,4-b]pyridin-3-yl)-2-(hydroxymethyl)phenyl)ethyl)-1,2,4-oxadiazole-5-carboxamide] | 3.47 nM
Cc1cc(-c2n[nH]c3ncc(-c4ccc(N5CCN(CC6CCN(c7ccc(N8CCC(=O)NC8=O)cc7)CC6)CC5)cc4)cc23)ccc1[C@@H](C)NC(=O)c1noc(C2(CO)CC2)n1 [Example 184, (R)—N-(1-(4-(5-(4-(4-((1-(4-(2,4-dioxotetrahydropyrimidin-1(2H)-yl)phenyl)piperidin-4-yl)methyl)piperazin-1-yl)phenyl)-1H-pyrazolo[3,4-b]pyridin-3-yl)-2-methylphenyl)ethyl)-5-(1-(hydroxymethyl)cyclopropyl)-1,2,4-oxadiazole-3-carboxamide] | 14 nM
Cc1cc(-c2n[nH]c3ncc(-c4ccc(N5CCN(CCc6ccc(C7CCC(=O)NC7=O)c(C)n6)CC5)cc4)cc23)ccc1[C@@H](C)NC(=O)c1nc(C(C)(C)C)no1 (stereo partly drawn) [Example 156, 3-(tert-butyl)-N-((1R)-1-(4-(5-(4-(4-(2-(5-(2,6-dioxopiperidin-3-yl)-6-methylpyridin-2-yl)ethyl)piperazin-1-yl)phenyl)-1H-pyrazolo[3,4-b]pyridin-3-yl)-2-methylphenyl)ethyl)-1,2,4-oxadiazole-5-carboxamide] | 2.14 nM
Cc1cc(-c2n[nH]c3ncc(-c4ccc(N5CCN(CCc6ccc(C7CCC(=O)NC7=O)cc6)CC5)cc4)cc23)ccc1CNC(=O)c1noc(C(C)(C)C)n1 (stereo not drawn) [Example 107, 5-(tert-butyl)-N-(4-(5-(4-(4-(4-(2,6-dioxopiperidin-3-yl)phenethyl)piperazin-1-yl)phenyl)-1H-pyrazolo[3,4-b]pyridin-3-yl)-2-methylbenzyl)-1,2,4-oxadiazole-3-carboxamide] | 1.89 nM
Cc1cc(-c2n[nH]c3ncc(-c4ccc(C5CCN(CC6CCN(c7ccc(N8CCC(=O)NC8=O)cc7)CC6)CC5)nc4)cc23)ccc1CNC(=O)c1noc(C(C)(C)C)n1 [Example 63, 5-(tert-butyl)-N-(4-(5-(6-(1-((1-(4-(2,4-dioxotetrahydropyrimidin-1(2H)-yl)phenyl)piperidin-4-yl)methyl)piperidin-4-yl)pyridin-3-yl)-1H-pyrazolo[3,4-b]pyridin-3-yl)-2-methylbenzyl)-1,2,4-oxadiazole-3-carboxamide] | 4.22 nM

Same assay, conditions: TMD8, maximum percentage of inhibition (degradation)

Structure (SMILES) | Dmax
CC(C)(C)c1noc(C(=O)NCc2ccc(-c3n[nH]c4ncc(-c5ccc(C6CCN(CC7CCN(c8ccc(N9CCC(=O)NC9=O)cc8)CC7)CC6)cc5)cc34)cc2F)n1 [Example 10, 3-(tert-butyl)-N-(4-(5-(4-(1-((1-(4-(2,4-dioxotetrahydropyrimidin-1(2H)-yl)phenyl)piperidin-4-yl)methyl)piperidin-4-yl)phenyl)-1H-pyrazolo[3,4-b]pyridin-3-yl)-2-fluorobenzyl)-1,2,4-oxadiazole-5-carboxamide] | 97.1%
Cc1cc(-c2n[nH]c3ncc(-c4ccc(N5CCN(CC6CCN(c7ccc(N8CCC(=O)NC8=O)cc7)CC6)CC5)cc4)cc23)ccc1CNC(=O)c1nc(C(C)(C)C)no1 [Example 20, 3-(tert-butyl)-N-(4-(5-(4-(4-((1-(4-(2,4-dioxotetrahydropyrimidin-1(2H)-yl)phenyl)piperidin-4-yl)methyl)piperazin-1-yl)phenyl)-1H-pyrazolo[3,4-b]pyridin-3-yl)-2-methylbenzyl)-1,2,4-oxadiazole-5-carboxamide] | 96.4%
Cc1cc(-c2n[nH]c3ncc(-c4ccc(C5CCN(CCCOc6ccc(NC7CCC(=O)NC7=O)c(C)c6)CC5)cc4)cc23)ccc1CNC(=O)c1nc(C(C)(C)C)no1 (stereo not drawn) [Example 24, 3-(tert-butyl)-N-(4-(5-(4-(1-(3-(4-((2,6-dioxopiperidin-3-yl)amino)-3-methylphenoxy)propyl)piperidin-4-yl)phenyl)-1H-pyrazolo[3,4-b]pyridin-3-yl)-2-methylbenzyl)-1,2,4-oxadiazole-5-carboxamide] | 97.3%
